How the values were obtained:
corn = experiment: Test A preemergence; format: in vivo, Zea mays; conditions: for Corn plant response rating (0 to 100 scale): 125 g ai/ha; for Corn plant response rating: 500 g ai/ha, 0 to 100 scale where 0 is no effect and 100 is complete control
How it was run: (§1)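 Visual injury scored 0–100 (100 = complete control) against untreated controls about 10 days after treatment in a greenhouse. Test chemicals, formulated with surfactant in non-phytotoxic solvent, were sprayed on soil preemergence or on 2-10 cm, one- to two-leaf plants postemergence.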

yellow nutsedge = experiment: Test C postemergence; format: in vivo, Cyperus esculentus; conditions: for Nutsedge, Yellow plant response rating: 31 g ai/ha; for Nutsedge, Yellow plant response rating / Plant response rating, Nutsedge, Yellow: scale 0 to 100 (0 no effect, 100 complete control)
How it was run: (§2)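 Plants were kept under greenhouse conditions for 13–15 days following spray. Pre-emergent application went to soil (loam–sand), post-emergent to foliage at 1–4 leaves. Evaluation: visual, percent control against untreated checks.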

wheat, winter = experiment: Test C postemergence; format: in vivo, Triticum aestivum; conditions: for Wheat plant response rating: 31 g ai/ha; for Wheat plant response rating / Plant response rating, Wheat: scale 0 to 100 (0 no effect, 100 complete control)
How it was run: as §2

barnyardgrass [1] = experiment: Test A preemergence; format: in vivo, Echinochloa crus-galli; conditions: for Barnyardgrass plant response rating (0 to 100 scale, 0 is no effect, 100 is complete control): 125 g ai/ha; for Barnyardgrass plant response rating: 500 g ai/ha, 0 to 100 scale where 0 is no effect and 100 is complete control
How it was run: as §1

Heteranthera limosa = experiment: Test B flooded paddy test; format: in vivo; conditions: Flood, 250 g ai/ha; 0 to 100 scale where 0 is no effect and 100 is complete control
How it was run: (§3)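 Evaluation is visual, against untreated controls, 13 to 15 days after treatment. Before treatment, plants reached the 2-leaf stage; pots were then flooded 3 cm deep, compound was added to the water, and that level was maintained. Ratings run 0 to 100, with 100 meaning complete control.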

galium = experiment: Test C postemergence; format: in vivo, Galium aparine; conditions: for Galium plant response rating: 31 g ai/ha; for Galium plant response rating / Plant response rating, Galium: scale 0 to 100 (0 no effect, 100 complete control)
How it was run: as §2

ragweed = experiment: Test C postemergence; format: in vivo, Ambrosia elatior; conditions: for Ragweed plant response rating: 31 g ai/ha; for Ragweed plant response rating / Plant response rating, Ragweed: scale 0 to 100 (0 no effect, 100 complete control)
How it was run: as §2

lambsquarters = experiment: Test C postemergence; format: in vivo, Chenopodium album; conditions: for Lambsquarters plant response rating: 31 g ai/ha; for Lambsquarters plant response rating / Plant response rating, Lambsquarters: scale 0 to 100 (0 no effect, 100 complete control)
How it was run: as §2

giant foxtail = experiment: Test A preemergence; format: in vivo, Setaria faberii; conditions: for Foxtail, Giant plant response rating (0 to 100 scale): 125 g ai/ha; for Foxtail, Giant plant response rating: 500 g ai/ha, 0 to 100 scale where 0 is no effect and 100 is complete control
How it was run: as §1

rice = experiment: Test B flooded paddy test; format: in vivo, Oryza sativa; conditions: Flood, 250 g ai/ha; 0 to 100 scale where 0 is no effect and 100 is complete control
How it was run: as §3

wheat = experiment: Test A preemergence; format: in vivo, Triticum aestivum; conditions: for Wheat plant response rating (0 to 100 scale): 125 g ai/ha; for Wheat plant response rating: 500 g ai/ha, 0 to 100 scale where 0 is no effect and 100 is complete control
How it was run: as §1

chickweed = experiment: Test C postemergence; format: in vivo, Stellaria media; conditions: for Chickweed plant response rating: 31 g ai/ha; for Chickweed plant response rating / Plant response rating, Chickweed: scale 0 to 100 (0 no effect, 100 complete control)
How it was run: as §2

velvetleaf = experiment: Test C postemergence; format: in vivo, Abutilon theophrasti; conditions: for Velvetleaf plant response rating: 31 g ai/ha; for Velvetleaf plant response rating / Plant response rating, Velvetleaf: scale 0 to 100 (0 no effect, 100 complete control)
How it was run: as §2

sedge, umbrella = experiment: Test B flooded paddy test; format: in vivo, Cyperus difformis; conditions: Flood, 250 g ai/ha; 0 to 100 scale where 0 is no effect and 100 is complete control
How it was run: as §3

morningglory = experiment: Test C postemergence; format: in vivo, Ipomoea coccinea; conditions: for Morningglory plant response rating: 31 g ai/ha; for Morningglory plant response rating / Plant response rating, Morningglory: scale 0 to 100 (0 no effect, 100 complete control)
How it was run: as §2

barnyardgrass [2] = experiment: Test B flooded paddy test; format: in vivo, Echinochloa crus-galli; conditions: Flood, 250 g ai/ha; 0 to 100 scale where 0 is no effect and 100 is complete control
How it was run: as §3

[3] = 16 g ai/ha, postemergence, 0 is no effect, 100 is complete control
[4] = postemergence, visual rating, 13 to 15 days
[5] = 125 g ai/ha, postemergence, visual rating
[6] = Postemergence, 62 g ai/ha, 13 to 15 days

Structure (SMILES): FC(F)(F)c1cnn(-c2c(Br)cccc2Oc2ncc(Cl)cn2)c1 [Compound 191]
- Corn plant response rating (0 to 100 scale) (corn): 0
- Corn plant response rating (corn): 30
- Plant response rating (0 to 100), Nutsedge, Yellow (yellow nutsedge; [3]): 0
- Nutsedge, Yellow plant response rating (yellow nutsedge; [4]): 0
- Plant response rating, Nutsedge, Yellow (yellow nutsedge; [5]): 5
- Plant response rating, Nutsedge, Yellow (yellow nutsedge; Postemergence, 62 g ai/ha): 5
- Plant response rating (0 to 100), Wheat (wheat, winter; [3]): 0
- Wheat plant response rating (wheat, winter; [4]): 0
- Plant response rating, Wheat (wheat, winter; [5]): 0
- Plant response rating, Wheat (wheat, winter; Postemergence, 62 g ai/ha): 0
- Barnyardgrass plant response rating (0 to 100 scale, 0 is no effect, 100 is complete control) (barnyardgrass [1]): 70
- Barnyardgrass plant response rating (barnyardgrass [1]): 100
- Plant response rating, Ducksalad (Heteranthera limosa): 95
- Plant response rating (0 to 100), Galium (galium; [3]): 80
- Galium plant response rating (galium; [4]): 80
- Plant response rating, Galium (galium; [5]): 98
- Plant response rating, Galium (galium; Postemergence, 62 g ai/ha): 98
- Plant response rating (0 to 100), Ragweed (ragweed; [3]): 5
- Ragweed plant response rating (ragweed; [4]): 20
- Plant response rating, Ragweed (ragweed; [5]): 35
- Plant response rating, Ragweed (ragweed; Postemergence, 62 g ai/ha): 30
- Plant response rating (0 to 100), Lambsquarters (lambsquarters; [3]): 85
- Lambsquarters plant response rating (lambsquarters; [4]): 60
- Plant response rating, Lambsquarters (lambsquarters; [5]): 95
- Plant response rating, Lambsquarters (lambsquarters; Postemergence, 62 g ai/ha): 75
- Foxtail, Giant plant response rating (0 to 100 scale) (giant foxtail): 100
- Foxtail, Giant plant response rating (giant foxtail): 100
- Plant response rating, Rice (rice): 0
- Wheat plant response rating (0 to 100 scale) (wheat): 20
- Wheat plant response rating (wheat): 40
- Plant response rating (0 to 100), Chickweed (chickweed; [3]): 10
- Chickweed plant response rating (chickweed; [4]): 80
- Plant response rating, Chickweed (chickweed; [5]): 98
- Plant response rating, Chickweed (chickweed; Postemergence, 62 g ai/ha): 80
- Plant response rating (0 to 100), Velvetleaf (velvetleaf; [3]): 50
- Velvetleaf plant response rating (velvetleaf; [4]): 65
- Plant response rating, Velvetleaf (velvetleaf; [5]): 65
- Plant response rating, Velvetleaf (velvetleaf; Postemergence, 62 g ai/ha): 75
- Plant response rating, Sedge, Umbrella (sedge, umbrella): 95
- Plant response rating (0 to 100), Morningglory (morningglory; [3]): 40
- Morningglory plant response rating (morningglory; [4]): 85
- Plant response rating, Morningglory (morningglory; [5]): 50
- Plant response rating, Morningglory (morningglory; Postemergence, 62 g ai/ha): 85
- Plant response rating, Barnyardgrass (barnyardgrass [2]): 40

Structure (SMILES): N#Cc1cnn(-c2c(C#N)cccc2Oc2ncc(Cl)cn2)c1 [Compound 200]
- Corn plant response rating (0 to 100 scale) (corn): 40
- Corn plant response rating (corn): 50
- Nutsedge, Yellow plant response rating (yellow nutsedge; [4]): 5
- Plant response rating, Nutsedge, Yellow (yellow nutsedge; [5]): 30
- Plant response rating (0 to 100), Nutsedge, Yellow (yellow nutsedge; 250 g ai/ha, postemergence): 35
- Plant response rating, Nutsedge, Yellow (yellow nutsedge; [6]): 5
- Wheat plant response rating (wheat, winter; [4]): 0
- Plant response rating, Wheat (wheat, winter; [5]): 5
- Plant response rating (0 to 100), Wheat (wheat, winter; 250 g ai/ha, postemergence): 5
- Plant response rating, Wheat (wheat, winter; [6]): 0
- Barnyardgrass plant response rating (0 to 100 scale, 0 is no effect, 100 is complete control) (barnyardgrass [1]): 80
- Barnyardgrass plant response rating (barnyardgrass [1]): 90
- Plant response rating, Ducksalad (Heteranthera limosa): 95
- Galium plant response rating (galium; [4]): 60
- Plant response rating, Galium (galium; [5]): 85
- Plant response rating (0 to 100), Galium (galium; 250 g ai/ha, postemergence): 95
- Plant response rating, Galium (galium; [6]): 65
- Ragweed plant response rating (ragweed; [4]): 25
- Plant response rating, Ragweed (ragweed; [5]): 55
- Plant response rating (0 to 100), Ragweed (ragweed; 250 g ai/ha, postemergence): 85
- Plant response rating, Ragweed (ragweed; [6]): 40
- Lambsquarters plant response rating (lambsquarters; [4]): 80
- Plant response rating, Lambsquarters (lambsquarters; [5]): 85
- Plant response rating (0 to 100), Lambsquarters (lambsquarters; 250 g ai/ha, postemergence): 95
- Plant response rating, Lambsquarters (lambsquarters; [6]): 80
- Foxtail, Giant plant response rating (0 to 100 scale) (giant foxtail): 100
- Foxtail, Giant plant response rating (giant foxtail): 100
- Plant response rating, Rice (rice): 20
- Wheat plant response rating (0 to 100 scale) (wheat): 30
- Wheat plant response rating (wheat): 50
- Chickweed plant response rating (chickweed; [4]): 55
- Plant response rating, Chickweed (chickweed; [5]): 95
- Plant response rating (0 to 100), Chickweed (chickweed; 250 g ai/ha, postemergence): 98
- Plant response rating, Chickweed (chickweed; [6]): 75
- Velvetleaf plant response rating (velvetleaf; [4]): 20
- Plant response rating, Velvetleaf (velvetleaf; [5]): 75
- Plant response rating (0 to 100), Velvetleaf (velvetleaf; 250 g ai/ha, postemergence): 70
- Plant response rating, Velvetleaf (velvetleaf; [6]): 50
- Plant response rating, Sedge, Umbrella (sedge, umbrella): 85
- Morningglory plant response rating (morningglory; [4]): 85
- Plant response rating, Morningglory (morningglory; [5]): 95
- Plant response rating (0 to 100), Morningglory (morningglory; 250 g ai/ha, postemergence): 95
- Plant response rating, Morningglory (morningglory; [6]): 80
- Plant response rating, Barnyardgrass (barnyardgrass [2]): 20

Structure (SMILES): Clc1cnc(Oc2cccc(Cl)c2-n2cc(I)cn2)nc1 [Compound 181]
- Corn plant response rating (0 to 100 scale) (corn): 0
- Corn plant response rating (corn): 30
- Plant response rating (0 to 100), Nutsedge, Yellow (yellow nutsedge; [3]): 0
- Nutsedge, Yellow plant response rating (yellow nutsedge; [4]): 0
- Plant response rating, Nutsedge, Yellow (yellow nutsedge; Postemergence, 62 g ai/ha): 5
- Plant response rating (0 to 100), Wheat (wheat, winter; [3]): 0
- Wheat plant response rating (wheat, winter; [4]): 0
- Plant response rating, Wheat (wheat, winter; [5]): 5
- Plant response rating, Wheat (wheat, winter; Postemergence, 62 g ai/ha): 0
- Barnyardgrass plant response rating (0 to 100 scale, 0 is no effect, 100 is complete control) (barnyardgrass [1]): 50
- Barnyardgrass plant response rating (barnyardgrass [1]): 100
- Plant response rating, Ducksalad (Heteranthera limosa): 75
- Plant response rating (0 to 100), Galium (galium; [3]): 60
- Galium plant response rating (galium; [4]): 65
- Plant response rating, Galium (galium; [5]): 80
- Plant response rating, Galium (galium; Postemergence, 62 g ai/ha): 70
- Plant response rating (0 to 100), Ragweed (ragweed; [3]): 5
- Ragweed plant response rating (ragweed; [4]): 35
- Plant response rating, Ragweed (ragweed; [5]): 45
- Plant response rating, Ragweed (ragweed; Postemergence, 62 g ai/ha): 30
- Plant response rating (0 to 100), Lambsquarters (lambsquarters; [3]): 75
- Lambsquarters plant response rating (lambsquarters; [4]): 100
- Plant response rating, Lambsquarters (lambsquarters; [5]): 100
- Plant response rating, Lambsquarters (lambsquarters; Postemergence, 62 g ai/ha): 100
- Foxtail, Giant plant response rating (0 to 100 scale) (giant foxtail): 90
- Foxtail, Giant plant response rating (giant foxtail): 100
- Plant response rating, Rice (rice): 0
- Wheat plant response rating (0 to 100 scale) (wheat): 0
- Wheat plant response rating (wheat): 10
- Plant response rating (0 to 100), Chickweed (chickweed; [3]): 55
- Chickweed plant response rating (chickweed; [4]): 75
- Plant response rating, Chickweed (chickweed; [5]): 85
- Plant response rating, Chickweed (chickweed; Postemergence, 62 g ai/ha): 80
- Plant response rating (0 to 100), Velvetleaf (velvetleaf; [3]): 25
- Velvetleaf plant response rating (velvetleaf; [4]): 20
- Plant response rating, Velvetleaf (velvetleaf; [5]): 70
- Plant response rating, Velvetleaf (velvetleaf; Postemergence, 62 g ai/ha): 40
- Plant response rating, Sedge, Umbrella (sedge, umbrella): 85
- Plant response rating (0 to 100), Morningglory (morningglory; [3]): 15
- Morningglory plant response rating (morningglory; [4]): 20
- Plant response rating, Morningglory (morningglory; [5]): 98
- Plant response rating, Morningglory (morningglory; Postemergence, 62 g ai/ha): 75
- Plant response rating, Barnyardgrass (barnyardgrass [2]): 0
